The results in this text go back to patent US12396961B2, “Compounds and compositions for intracellular delivery of agents” (ModernaTX, Inc., priority 2015, dated 2025).

The subject of data set [1] is luciferase (Luc) mRNA expression. Description: Luc expression (AUC) in CD-1 mice relative to MC3. The data set is classed as in vivo. Particulars: for Liver/Spleen Ratio / Lipid/MC3 AUC: Table 7c; for Lipid/MC3 AUC: AUC relative to MC3; for Lipid/MC3 Luc CD-1 (mice): Luc expression relative to MC3, CD-1 mice. How it is done: FIG. 15 is a graph summarizing luciferase expression levels at 6 h after administration of nanoparticle compositions containing compounds of the disclosure to CD-1 mice at a dose of 0.5 mpk. Total light flux values were acquired via body luminescent imaging (BLI) 6 h after administration. In this Figure, the numbers 1-7 and 10 refer to the compositions containing Compounds 4-10 and MC3 respectively.
In contrast, hEPO expression in rats induced by administration of nanoparticle composition including compound according to one of formulae (I), (Ia1)-(Ia6), (Ib), (II), (IIa), (III), and (IIIa) was substantially lower than that measured for MC3. […] Table 7c and 7d show additional protein expressions and clearance data from compositions with various compounds disclosed herein as compared to with MC3.

Data set [2] is described as follows: Particle size and polydispersity index (Zetasizer Nano ZS). The data set is classed as physicochemical. The settings on record: Table 1; for PDI: DOPE 40:20:38.5:1.5, Luc mRNA. From the text: Nanoparticle compositions may be characterized by a variety of methods. For example, microscopy (e.g., transmission electron microscopy or scanning electron microscopy) may be used to examine the morphology and size distribution of a nanoparticle composition. Dynamic light scattering or potentiometry (e.g., potentiometric titrations) may be used to measure zeta potentials. Dynamic light scattering may also be utilized to determine particle sizes. Instruments such as the Zetasizer Nano ZS (Malvern Instruments Ltd, Malvern, Worcestershire, UK) may also be used to measure multiple characteristics of a nanoparticle composition, such as particle size, polydispersity index, and zeta potential.
A Zetasizer Nano ZS (Malvern Instruments Ltd, Malvern, Worcestershire, UK) can be used to determine the particle size, the polydispersity index (PDI) and the zeta potential of the nanoparticle compositions in 1×PBS in determining particle size and 15 mM PBS in determining zeta potential.

For the molecule `CCCCCCCCCN(CCCCC(=O)OCCCC)CCC1CCN(C(=O)CN(CCCCCCCCC)CCN(CCCCCCCCC)CCCCCCCCC)CC1` [Compound 60, Butyl 5-((2-(1-(N-(2-(dinonylamino)ethyl)-N-nonylglycyl)piperidin-4-yl)ethyl)(nonyl)amino)pentanoate], in data set [1], the “Liver/Spleen Ratio” value is listed as 15 and the “Lipid/MC3 AUC” value amounted to 2.00.

`CCCCCCCCCCCCN(CCCCCCCCCCCC)CCN(CCCCCCCCCCCC)CC(=O)N1CC2CC1CN2C(=O)CN(CCCCCCCCC)CCCCCCCCC` (stereo not drawn) [Compound 43, 2-((2-(Didodecylamino)ethyl)(dodecyl)amino)-1-(5-(dinonylglycyl)-2,5-diazabicyclo[2.2.1]heptan-2-yl)ethan-1-one] displayed a PDI in data set [2] of 0.220. Also, the “Size (nm)” value in data set [2] (lipid:DOPE:Chol:PEG-DMG 40:20:38.5:1.5, Luc mRNA, MC3 standard formulation) was 99.0 nm. For the same molecule, the “Lipid/MC3 Luc CD-1 (mice)” value in data set [1] was determined as 0.34.

With `CCCCCCCCCN(CCCCCCCCC)CCN(CCCCCCCCC)CC(=O)N1CCN(C(=O)CN(CCCCCCCCC)CCCCCCCC(=O)OC)CC1` [Compound 44, Methyl 8-((2-(4-(N-(2-(dinonylamino)ethyl)-N-nonylglycyl)piperazin-1-yl)-2-oxoethyl)(nonyl)amino)octanoate], the PDI in data set [2] was determined as 0.190. Moreover, the “Lipid/MC3 Luc CD-1 (mice)” value in data set [1] is 0.82.

In the case of `CCCCCCCCCN(CCCCCCCCC)CCN(CCCCCCCCC)CC(=O)N1CCN(C(=O)CN(CCCCCCCCC)CCCCCC(=O)OCCC)CC1` [Compound 54, Propyl 6-((2-(4-(N-(2-(dinonylamino)ethyl)-N-nonylglycyl)piperazin-1-yl)-2-oxoethyl)(nonyl)amino)hexanoate], in data set [1], the “Liver/Spleen Ratio” value turned out to be 32 and the “Lipid/MC3 AUC” value was 0.13.

Regarding `CCCCCCCCCCCCCCN(CCCCCCCCCCCCCC)CC(=O)N1CCN(C(=O)CN(CCCCCCCCC)CCN(CCCCCCCCC)CCCCCCCCC)CC1` [Compound 51, 2-((2-(Dinonylamino)ethyl)(nonyl)amino)-1-(4-(ditetradecylglycyl)piperazin-1-yl)ethan-1-one], in data set [2], the PDI came to 0.190. The “Lipid/MC3 Luc CD-1 (mice)” value in data set [1] amounted to 5.22.

In turn, `CCCCCCCCCN(CCCCCCCC(=O)OC)CCN(CCCCCCCC(=O)OC)CC(=O)N1CCN(C(=O)CN(CCCCCCCCC)CCCCCCCCC)CC1` [Compound 48, Methyl 8-((2-(4-(dinonylglycyl)piperazin-1-yl)-2-oxoethyl)(2-((8-methoxy-8-oxooctyl)(nonyl)amino)ethyl)amino)octanoate] gave a PDI in data set [2] of 0.099. Further, in data set [1], the “Lipid/MC3 Luc CD-1 (mice)” value came out at 0.01.

In data set [2], `CCCCCCCCCN(CCCCCCCCC)CCN(CCCCCCCCC)CC(=O)N1CC2CC1CN2C(=O)CN(CCCCCCCCC)CCCCCCCCC` (stereo not drawn) [Compound 42, 2-(Dinonylamino)-1-(5-(N-(2-(dinonylamino)ethyl)-N-nonylglycyl)-2,5-diazabicyclo[2.2.1]heptan-2-yl)ethan-1-one] showed a PDI of 0.190. In addition, the “Lipid/MC3 Luc CD-1 (mice)” value in data set [1] is 3.99.

For `CCCCCCCCCN(CCCCCCCCC)CCN(CCCCCCCC(=O)OC)CC(=O)N1CCN(C(=O)CN(CCCCCCCCC)CCCCCCCCC)CC1` [Compound 47, Methyl 8-((2-(dinonylamino)ethyl)(2-(4-(dinonylglycyl)piperazin-1-yl)-2-oxoethyl)amino)octanoate], in data set [2], the PDI is on record as 0.180. Besides, the “Lipid/MC3 Luc CD-1 (mice)” value in data set [1] worked out at 0.22.

With `CCCCCCCCCN(CCCC(=O)OCCCCC)CCN(CCCCCCCCC)CC(=O)N1CCN(C(=O)CN(CCCCCCCCC)CCCC(=O)OCCCCC)CC1` [Compound 71, Pentyl 4-(nonyl(2-(4-(N-nonyl-N-(2-(nonyl(4-oxo-4-(pentyloxy)butyl)amino)ethyl)glycyl)piperazin-1-yl)-2-oxoethyl)amino)butanoate], in data set [1], the “Liver/Spleen Ratio” value is given as 25 and the “Lipid/MC3 AUC” value is reported as 1.25.

`CCCCCCCCCN(CCCCCC(=O)OCCC)CCC1CCN(C(=O)CN(CCCCCCCCC)CCN(CCCCCCCCC)CCCCCCCCC)CC1` [Compound 59, Propyl 6-((2-(1-(N-(2-(dinonylamino)ethyl)-N-nonylglycyl)piperidin-4-yl)ethyl)(nonyl)amino)hexanoate]: in data set [1], the “Liver/Spleen Ratio” value amounted to 5 and the “Lipid/MC3 AUC” value was 0.84.
